# Reference: US20090326008A1, “NF-kappa B Inhibitor” (priority 2006, published 2009)
# How the values were obtained:
# [1] = test system: COX2; assay: Relative COX2 mRNA expression in IL-1β-stimulated MKN-45 cells (real-time PCR); assay type: cell-based, human; settings: IL-1β-stimulated DMSO-treated cells = 100%, ACTB reference
# Experimental: (§1) RNA was extracted from the cells used in Example 2 according to the manufacturer's protocol for ABI Prism 6100 Nucleic Acid PrepStation (a nucleic acid isolation system, product of Applied Biosystems). More specifically, after removal of the culture supernatant and washing with 1 mL of PBS, 250 μL of Nucleic Acid Purification Lysis Solution (Part No. 4305895, Applied Biosystems) was added, and then agitated using a shaker for 2 to 3 minutes. The Lysis Solution containing the cell lysate was collected, and the total amount was transferred to the wells of RNA Purification Tray (Part No. 4305673, Applied Biosystems), which had been pre-wet with 40 μL of Nucleic Acid Purification Wash Solution I (Part No. 4305891, Applied Biosystems) beforehand. Aspiration (20% pressure) was performed for 2 minutes to adsorb the sample onto the RNA Purification Tray, followed by sequentially adding and aspirating (20% pressure, 2 min.) 500 μL of Wash Solution I, Nucleic Acid Purification (Part No. 4305891, Applied Biosystems), 400 μL of Wash Solution II, Nucleic Acid Purification (Part No. 4305890, product of Applied Biosystems), 400 μL of the Wash Solution II, and 300 μL of the Wash Solution II in that order. Aspiration (90% pressure) was performed for 5 minutes to remove the water content from the RNA Purification Trays. After addition of 150 μL of Elution Solution, Nucleic Acid Purification (Part No. 4305893, product of Applied Biosystems), aspiration (20% pressure) was performed for 2 minutes, while collecting the outflow. This was used as collected RNA solution.
# (§2) Absorbance of the collected RNA solution at 260 nm was measured using a microplate spectrophotometer (“SpectraMax Plus”, product of Molecular Devices) with an analysis software (“SOFTmaxPRO ver.3.1.2”, product of Molecular Devices), and the RNA concentration was determined from the absorbance. Likewise, absorbance at 280 nm was measured and the purity of the RNA was determined using the analysis software.
# (§3) cDNA was synthesized according to the manufacturer's protocol for TaqMan® Reverse Transcription Reagents (Part No. N808-0234, product of Applied Biosystems). More specifically, about 0.5 μg of RNA, 2.5 μL of 10×RT buffer, 5.5 μL of MgCl2 solution, 5 μL of dNTP mixture, 1.25 μL of random hexamer (primers), 0.5 μL of RNase inhibitor, and 0.63 μL of MultiScribe Reverse Transcriptase (product of Applied Biosystems) were added to each collected RNA sample in a tube, and DEPC-treated water was added to make a total volume of 25 μL and stirred. A reaction consisting of 25° C. for 10 minutes, 48° C. for 30 minutes, and 95° C. for 5 minutes was performed using a PCR thermal cycler (“TaKaRa PCR Thermal Cycler Dice”, product of Takara Bio Inc.) to prepare a cDNA solution.
# (§4) PCR was performed according to the manufacturer's protocol for TaqMan® Gene Expression Assays (product of Applied Biosystems). More specifically, 5 μL of TaqMan® Fast Universal PCR Master Mix (product of Applied Biosystems), 0.5 μL of TaqMan® Gene Expression Assays for the target gene (gene-specific probe and primer sets, product of Applied Biosystems), and 4.5 μL of the above-obtained cDNA solution were added to each sample and stirred. A PCR reaction consisting of heating at 95° C. for 20 seconds, followed by 40 cycles consisting of heating at 95° C. for 3 seconds and annealing and extension at 60° C. for 30 seconds was performed using a real-time PCR device (“Applied Biosystems 7500 Real-Time PCR System”) with SDS v1.4 Software (product of Applied Biosystems). Threshold cycle (Ct) values were calculated using the software.
# (§5) The Assay IDs of the TaqMan® Gene Expression Assays for the target genes used are as follows:
# (§6) The expression level of each gene was determined according to the following formula using the level of ACTB as a reference standard.
# (§7) (Relative mRNA expression level)=2̂−{(Ct value of the target gene)−(Ct value of ACTB)} […]
# [2] = test system: IL-8; assay: Relative IL-8 mRNA expression in IL-1β-stimulated MKN-45 cells (real-time PCR); assay type: cell-based, human; settings: IL-1β-stimulated DMSO-treated cells = 100%, ACTB reference
# Experimental: as §1, §2, §3, §4, §5, §6, §7
smiles,measurement,setting,value
COc1ccc(CC2SC(=S)NC2=O)c2c1N(CCC(C)C)C(=O)CC2 (centres unmarked) [Test Compound 965],"COX2 relative mRNA expression level, Mean",[1],37.6%
same,"IL-8 relative mRNA expression level, Mean",[2],61.2%
